This test addresses T1, Human eIF4E (aa 28-217) (Homo sapiens, UniProt P06730).
T1 construct: Human eIF4E (aa 28-217) with a C-terminal His-tag; made in house
Nature of the test: Human eIF4E/4G2 binding assay (TR-FRET). The settings on record: purified eIF4E with biotin labeled 4G2 peptide, 4 hours preincubation at room temperature. On the procedure: Example 3. Compound Testing in Human eIF4E/4G2 Binding Assay
1004461 Human eIF4E (aa 28-217) with a C-terminal His-tag was expressed in E. coli in inclusion bodies. The protein was solubilized with 8 M urea and purified under denaturing conditions using nickel-charged HisTrap HP columns (GE Healthcare). The purified protein was then refolded by diluting in 20 mM Hepes pH 7.0, 0.5 M NaCl, 1 mM DTT, 1 mM EDTA, 0.5 M arginine plus 6 M urea, and then dialyzing overnight into the same buffer without the urea. The protein was further dialyzed into 20 mM Hepes, pH 6.5, 50 mM NaCl, 1 mM EDTA, 1 mM DTT, and concentrated using Hitrap SP sepharose FF columns (GE Healthcare). The concentrated protein was dialyzed into 20 mM Hepes, pH 7.0, 0.5M NaCl, 5 mM DTT and 10% glycerol, and stored at −80° C. until use.
Test compounds (3.43 mM stock in DMSO) were diluted 2-fold in series in DMSO (10 concentration points). Compound solutions (1.2 μl/well) were added into black 384-well polypropylene microplates (Matrix, Thermal Scientific). Twenty-two microliters per well of Assay Buffer (50 mM NaPi, pH 6.5, 50 mM KCl, 1 mM DTT and 0.5 mg/ml gamma globulin) and eight microliters per well of 82.5 nM purified eIF4E in Assay Buffer were added. The samples were incubated at room temperature (20-23° C.) for 4 hours. Biotin labeled 4G2 peptide (Ac-Lys-Gln-Tyr-Asp-Arg-Glu-Phe-Leu-Leu-Asp-Phe-Gln-Phe-Met-Pro-Lys(Aha-Bio)-NH2, 1.75 μM stock in DMSO) was diluted to 0.14 μM in Assay Buffer (without DTT) and 5 μl/well was added. The samples were incubated at room temperature for 20 min. Five microliters per well of 6.4 nM Eu-streptavidin (Eu-SA, Perkin Elmer) and 80 nM Allophycocyanin (APC)-anti His antibody (Columbia Biosciences) in Assay Buffer (without DTT) were then added and the samples were incubated at room temperature for 20 min.
Assay signals were monitored by reading excitation at 340 nm and emission fluorescence at 615 nm and 665 nm on an Envision reader (Perkin Elmer). Normalized TR-FRET (time-resolved fluorescence resonance energy transfer) assay signal (Rn) was calculated by the formula: Rn=[(A−Ba−C×D)/(D−Bd)]×(Dc−Bd) • Where A is the fluorescence intensity of the sample at 665 nm, • D is the fluorescence intensity of the sample at 615 nm, • Ba and Bd are plate backgrounds at 665 nm and 615 nm, respectively, • Dc is the fluorescence intensity of 0.78 nM Eu-SA in the assay buffer at 615 nm
The cross-talk factor (C) is determined by the following formula: C=(Ac−Ba)/(Dc−Bd) Where Ac is the fluorescence intensity of 0.78 nM Eu-SA in the assay buffer at 665 nm.
IC50 values were calculated using xLFit program (IDBS). Table 2 below lists EC50 of some compounds, wherein A represents IC50≤0.5 μM; B represents 0.5 uM<IC50≤1 μM; and C represents IC50>1 μM.
A general note: Time-resolved FRET reads energy transfer from a long-lived donor to a nearby acceptor.

What is called pIC50 is the negative decadic logarithm of the IC50, by convention in mol/L. A higher pIC50 goes with a small IC50.

SMILES strings stand for the structures. pIC50: −log10 of the molar value.

T1 sequence (P06730 28-217): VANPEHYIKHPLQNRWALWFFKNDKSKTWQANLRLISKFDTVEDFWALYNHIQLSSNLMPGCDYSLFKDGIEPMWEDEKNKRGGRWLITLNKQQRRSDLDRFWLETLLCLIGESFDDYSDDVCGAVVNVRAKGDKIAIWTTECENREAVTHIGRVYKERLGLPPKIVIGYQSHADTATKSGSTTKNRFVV

On to `COCCOc1ccc(-c2nc(Nc3cnc(-c4cccs4)cc3C(=O)O)sc2Cc2ccccc2)cc1F` [I-63], for which the pIC50 was not below 6.30. The molecule `CNCCNC(=O)c1cc(-c2cccs2)cnc1Nc1nc(-c2ccc(OCCOC)c(F)c2)c(CC(C)C)s1` [I-56, 2-((4-(3-fluoro-4-(2-methoxyethoxy)phenyl)-5-isobutylthiazol-2-yl)amino)-N-(2-(methylamino)ethyl)-5-(thiophen-2-yl)nicotinamide] showed a pIC50 of less than 6.00. `COCCOc1cc(-c2nc(Nc3ncc(-c4cccs4)cc3C(=O)O)sc2CC(C)(C)C)ccc1Cl` [I-95] gave a pIC50 not below 6.30. The result for `COCCOc1ccc(-c2nc(Nc3ncc(-c4cccs4)cc3C(=O)O)sc2CC(C)C)cc1F` [I-30] reads 6.00 to 6.30.

The record behind these values is patent US12234231B2, “EIF4E inhibitors and uses thereof” (PIC Therapeutics, Inc., priority 2021, dated 2025).
